According to paper PMC3702004, “Comparison of Intake and Systemic Relative Effect Potencies of Dioxin-like Compounds in Female Mice after a Single Oral Dose” (Environmental Health Perspectives, 2013):

What was measured:
[1] = Body and organ weight, hepatic lipid content; assay type: in vivo, female C57BL/6 mice; conditions: day 3; for % lipid / g liver: pooled liver samples
Description: (§1) Animals. Eight-week-old female C57BL/6 mice (Harlan laboratories, Venray, the Netherlands) were randomly assigned to treatment groups (six animals per group) and allowed to acclimate for 1.5 weeks. The animals were housed in groups in standard cages and conditions (23 ± 2°C, 50–60% relative humidity, 12-hr dark/light cycle) with free access to food and water. Mice received a single dose of test compound by oral gavage at a dosing volume of 10 mL/kg body weight (BW). Mice treated with corn oil vehicle (10 mL/kg BW) served as controls. For each congener, five different doses were administered, ranging from 0.5–100 μg/kg BW (TCDD) to 5,000–500,000 µg/kg BW (PCB-153). Detailed information on doses is provided in Supplemental Material, Table S1 (http://dx.doi.org/10.1289/ehp.1206336). On day 3 after dosing, animals were euthanized by CO2/O2 asphyxiation, and blood was immediately collected from the abdominal aorta. The liver, thymus, spleen, and adipose tissue were removed, weighed (liver, thymus, and spleen), snap frozen, and stored at –80°C. All animal treatments were performed with permission of the Animal Ethical Committee (DEC Utrecht) and performed according to the [Law on Animal Experiments (1977)]. Animals were treated humanely and with regard for alleviation of suffering.
Compound analysis. Adipose and liver tissues samples were homogenized in Na2SO4, followed by extraction and clean-up in one step, and then eluted with 200 mL 1:1 hexane:dichloromethane on an open column packed with 40% wt/wt H2SO4-impregnated silica and KOH-silica. Blood plasma samples were extracted on an open column using Chem-Elut (Agilent Technologies, Santa Clara, CA, USA) and then NaCl eluted with 75 mL 3:2 hexane:2-propanol. Clean-up was performed using a miniaturized silica column (as described above), and samples were eluted using 30 mL hexane. Because the samples typically contained high levels of the analytes, only a small fraction was evaporated and analyzed. Prior to evaporation, we spiked a fraction of the samples with ^13C-labeled standards. We checked potential loss of analytes during extraction and clean-up by reextracting the samples using the identical protocol used for the samples. […] Tetradecane was added prior to evaporation. Sample analysis followed the U.S. Environmental Protection Agency Method 1613 ([U.S. Environmental Protection Agency 1994]) using single ion monitoring mode on an Agilent 6809N gas chromatograph (Agilent Technologies) coupled with a Micromass Ultima Autospec Ultra high-resolution mass spectrometer (HRMS; Waters Corp., Milford, MA, USA). Compounds were separated on a 60 m × 0.25 mm DB5-MS column ([…]; J&W Scientific, Folsom, CA, USA). The HRMS was operated with electron impact ionization with electron energy of 35 eV and an ion source temperature of 250°C. To reduce the number of analyses, samples were pooled before clean-up. […] This method was used because full congener–specific separation could be achieved on the high-resolution GC–HRMS. For lipid determination, samples were evaporated to dryness after the extraction step, and the amount of lipids was determined gravimetrically. Concentrations were calculated based on lipid weight and wet weight. The analysis of samples for the PCB-118 5,000 μg/kg BW dose failed during the procedure; thus analysis for this group could not be completed.
Statistical analysis. Statistical significant differences of the means and variances were determined using one-way analysis of variance (ANOVA) followed by Tukey-Kramer multiple comparisons. Differences were considered statistically significant at p < 0.05. Statistical calculations were performed using GraphPad 6.01 (GraphPad Software Inc.).

[2] = system: hepatic CYP1A1 activity (ethoxyresorufin-O-deethylase, EROD); test: Hepatic EROD activity in hepatic microsomal fractions after single oral dose; assay type: in vivo, female C57BL/6 mice; conditions: for BMR20TCDD Liver EROD activity: 3 days after single oral dose; for REP Liver EROD activity: relative to TCDD
Description: as §1
EROD activity. We determined hepatic CYP1A1 activity using ethoxyresorufin-O-deethylase (EROD) activity in hepatic microsomal fractions as described by [Schulz et al. (2012)].
Data analysis. We obtained concentration–response curves using a sigmoidal dose–response nonlinear regression curve fit with variable slope (GraphPad Prism 6.01; GraphPad Software Inc., San Diego, CA, USA):
In this Hill equation, y is the dependent variable (EROD activity or fold induction of mRNA levels), x the independent variable (administered or systemic dose), E0 is the estimated background response level, Emax is the maximum response, b is the estimated median effective concentration (EC50), and n is the shaping parameter of the Hill curve.
Using the congener-specific BMR20TCDD concentration, REPs were calculated relatively to TCDD: […]

SMILES: Clc1ccc(-c2cc(Cl)c(Cl)c(Cl)c2)cc1Cl [PCB-126, 3,3´,4,4´,5-pentachlorobiphenyl]
- Body weight ([1]; oral dose 5 µg/kg bw): 19.3 ± 0.9 gram
- Liver weight ([1]; oral dose 5 µg/kg bw): 4.97 ± 0.38 % of bw
- Spleen weight ([1]; oral dose 5 µg/kg bw): 0.33 ± 0.04 % of bw
- Thymus weight ([1]; oral dose 5 µg/kg bw): 0.27 ± 0.06 % of bw
- % lipid / g liver ([1]; oral dose 5 µg/kg bw): 3.4%
- Body weight ([1]; oral dose 25 µg/kg bw): 18.9 ± 1.4 gram
- Liver weight ([1]; oral dose 25 µg/kg bw): 4.96 ± 0.35 % of bw
- Spleen weight ([1]; oral dose 25 µg/kg bw): 0.33 ± 0.06 % of bw
- Thymus weight ([1]; oral dose 25 µg/kg bw): 0.29 ± 0.05 % of bw
- % lipid / g liver ([1]; oral dose 25 µg/kg bw): 3.7%
- Body weight ([1]; oral dose 100 µg/kg bw): 19.5 ± 0.7 gram
- Liver weight ([1]; oral dose 100 µg/kg bw): 5.07 ± 0.19 % of bw
- Spleen weight ([1]; oral dose 100 µg/kg bw): 0.31 ± 0.04 % of bw
- Thymus weight ([1]; oral dose 100 µg/kg bw): 0.25 ± 0.06 % of bw
- % lipid / g liver ([1]; oral dose 100 µg/kg bw): 4.4%
- Body weight ([1]; oral dose 250 µg/kg bw): 19.3 ± 1.3 gram
- Liver weight ([1]; oral dose 250 µg/kg bw): 5.43 ± 0.19 % of bw
- Spleen weight ([1]; oral dose 250 µg/kg bw): 0.32 ± 0.02 % of bw
- Thymus weight ([1]; oral dose 250 µg/kg bw): 0.26 ± 0.04 % of bw
- Body weight ([1]; oral dose 1000 µg/kg bw): 18.8 ± 0.9 gram
- Liver weight ([1]; oral dose 1000 µg/kg bw): 5.64 ± 0.20 % of bw
- Spleen weight ([1]; oral dose 1000 µg/kg bw): 0.39 ± 0.16 % of bw
- Thymus weight ([1]; oral dose 1000 µg/kg bw): 0.27 ± 0.04 % of bw
- Dose with significant increase in liver weight vs vehicle controls ([1]; single oral dose): ≥ 1,000 µg/kg BW
- BMR20TCDD Liver EROD activity ([2]; dose metric Adm dose): 29.3 µg/kg BW
- BMR20TCDD Liver EROD activity ([2]; dose metric Syst adipose): 72.7 ng/g lipid
- BMR20TCDD Liver EROD activity ([2]; dose metric Syst plasma): 72.3 ng/g lipid
- REP Liver EROD activity ([2]; dose metric Adm dose (µg/kg BW)): 0.01
- REP Liver EROD activity ([2]; dose metric Syst adipose (ng/g lipid)): 0.02
- REP Liver EROD activity ([2]; dose metric Syst liver (ng/g lipid)): 0.003
- REP Liver EROD activity ([2]; dose metric Syst liver (ng/g liver)): 0.004
- REP Liver EROD activity ([2]; dose metric Syst plasma (ng/g lipid)): 0.02

SMILES: Clc1cc(Cl)c(-c2cc(Cl)c(Cl)cc2Cl)cc1Cl [PCB-153, 2,2´,4,4´,5,5´-hexachlorobiphenyl]
- Body weight ([1]; oral dose 5000 µg/kg bw): 18.8 ± 1.1 gram
- Liver weight ([1]; oral dose 5000 µg/kg bw): 4.71 ± 0.34 % of bw
- Spleen weight ([1]; oral dose 5000 µg/kg bw): 0.30 ± 0.04 % of bw
- Thymus weight ([1]; oral dose 5000 µg/kg bw): 0.25 ± 0.05 % of bw
- % lipid / g liver ([1]; oral dose 5000 µg/kg bw): 3.3%
- Body weight ([1]; oral dose 15000 µg/kg bw): 19.1 ± 0.5 gram
- Liver weight ([1]; oral dose 15000 µg/kg bw): 4.96 ± 0.10 % of bw
- Spleen weight ([1]; oral dose 15000 µg/kg bw): 0.36 ± 0.04 % of bw
- Thymus weight ([1]; oral dose 15000 µg/kg bw): 0.26 ± 0.04 % of bw
- % lipid / g liver ([1]; oral dose 15000 µg/kg bw): 3.9%
- Body weight ([1]; oral dose 50000 µg/kg bw): 19.6 ± 0.8 gram
- Liver weight ([1]; oral dose 50000 µg/kg bw): 5.15 ± 0.38 % of bw
- Spleen weight ([1]; oral dose 50000 µg/kg bw): 0.33 ± 0.04 % of bw
- Thymus weight ([1]; oral dose 50000 µg/kg bw): 0.29 ± 0.03 % of bw
- % lipid / g liver ([1]; oral dose 50000 µg/kg bw): 3.4%
- Body weight ([1]; oral dose 150000 µg/kg bw): 19.9 ± 1.1 gram
- Liver weight ([1]; oral dose 150000 µg/kg bw): 5.47 ± 0.37 % of bw
- Spleen weight ([1]; oral dose 150000 µg/kg bw): 0.34 ± 0.05 % of bw
- Thymus weight ([1]; oral dose 150000 µg/kg bw): 0.25 ± 0.04 % of bw
- Body weight ([1]; oral dose 500000 µg/kg bw): 18.8 ± 0.7 gram
- Liver weight ([1]; oral dose 500000 µg/kg bw): 5.80 ± 0.30 % of bw
- Spleen weight ([1]; oral dose 500000 µg/kg bw): 0.33 ± 0.05 % of bw
- Thymus weight ([1]; oral dose 500000 µg/kg bw): 0.24 ± 0.04 % of bw
- Dose with significant increase in liver weight vs vehicle controls ([1]; single oral dose): ≥ 500,000 µg/kg BW
- Dose with statistically significant decrease in relative thymus weight vs vehicle controls ([1]; single oral dose): 500,000 μg/kg BW
